# Experiments:
# Format in all cases: in vivo, human
# [1] = test system: normally potent male patients suffering from premature ejaculation; assay: Example 2 Study Group 1: single blind cross-over, continual maintenance paroxetine vs placebo (ELT, coitus frequency)
# Text: All patients in the study group were heterosexual, had no other sexual disorders and were either married or in a stable relationship. Patients with erectile dysfunction, reduced sexual desire, inhibited male orgasm, chronic depressive, psychiatric or physical illness, alcohol or substance abuse and the use of psychotropic and anti-depressant medication were excluded from the trial. Study Group 1 was comprised of 26 patients who were randomized into two treatment groups, Group A and Group B. […] Group B received placebo similarly administered about 3-4 hours before sexual intercourse. Patients were reviewed every two weeks. Cross-over was then conducted in both groups after four weeks of treatment, following an intervening three week drug free “washout” period, for a further four weeks of treatment. None of the patients received any formal psychosexual counseling. Patients were supplied with a diary and were asked to record their frequency of coitus, quality of erection and orgasm. Patients were asked to measure their ELT using a stopwatch. Pre-treatment mean ELT was measured over a three week baseline period during which patients were asked to have sexual intercourse at least three times. Pre-treatment frequency of coitus was the mean number of attempts in the previous three months. Patients were asked not to use condoms or topical penile anaesthetic creams or sprays. The frequency data of coitus and ejaculatory latency time (ELT) during the paroxetine and placebo treatment phases were statistically compared (Student's t-test).
# [2] = test system: normally potent male patients suffering from premature ejaculation; assay: Example 2: incidence of adverse effects
# [3] = test system: healthy men with a diagnosis of premature ejaculation (PE); assay: Example 3: double-blind, randomized, placebo-controlled three-way crossover safety and efficacy study, 20 and 30 mg capsules; conditions: for Mean Time in minutes, Reported By Partner / Time in minutes (Range), Reported By Partner / Mean Time in minutes, Reported By Patient / Time in minutes (Range), Reported By Patient / Mean % Change from Baseline, Reported By Partner / Mean % Change from Baseline, Reported By Patient: 6-week treatment period, preliminary data; for Mean Time in minutes, Reported By Partner / Time in minutes (Range), Reported By Partner / Mean Time in minutes, Reported By Patient / Time in minutes (Range), Reported By Patient: male baseline latency ≦ 2 minutes; for Reason for Early Termination: AE (Adverse Experience), patients: crossover of placebo, 20 and 30 mg capsules, not attributed to one treatment
# Protocol: A double-blind, randomized, placebo-controlled, three-way crossover safety and efficacy study was conducted at four clinical sites, A-D. […] The study consisted of a screening period, a baseline period, and three treatment periods, separated by two washout periods. Patients who completed the study participated for about twenty-five weeks. […] Patients who met the selection criteria provided a medical history and submitted to psychosexual and physical examinations at screening. The efficacy of the paroxetine capsules was assessed at each visit by questionnaire. Safety was assessed by physical examinations and adverse experience (AE) reports, if any, were collected throughout the course of the study. A post-treatment physical assessment was performed at the final visit. Qualified patients who were admitted to the study were assigned an identification number in sequential order by enrollment. […] There were about twenty-three patients per sequence. […] Life long history of PE and/or history of PE within the last six months having ≦one minute ejaculation and a perception of lack of control. […] Identically matching placebo capsules were also supplied. Blinding, packaging and labeling was such that each strength of paroxetine capsule and placebo capsule was indistinguishable from one another on the basis of size, appearance, shape, weight, taste, odor finish, and dissolution characteristics. […] A three-week washout (no treatment) period took place between the end of Treatment Period 1 and the start of Treatment Period 2, and between the end of Treatment Period 2 and the start of Treatment Period 3. The following methodology for the study was employed.
# [4] = test system: healthy men with a diagnosis of premature ejaculation (PE); assay: Example 4: double-blind, randomized, parallel safety and efficacy study, 6, 9 and 12 mg capsules; conditions: for Time to Ejaculate, Mean Time (minutes), Reported By Partner / Time to Ejaculate, Range (minutes), Reported By Partner / Time to Ejaculate, Mean Time (minutes), Reported By Patient / Time to Ejaculate, Range (minutes), Reported By Patient: after 6 weeks treatment, baseline latency ≦ 2 minutes, preliminary data; for Time to Ejaculate, Mean Time (minutes), Reported By Partner / Time to Ejaculate, Range (minutes), Reported By Partner: n 23; for Reason for Early Termination: AE (Adverse Experience), patients: 6, 9 and 12 mg capsules combined
# Protocol: A double-blind, randomized, parallel safety and efficacy study was conducted at six clinical sites, A-F. […] The study consisted of a screening period, baseline period, and two treatment periods. The patients who completed the study participated for about nine weeks. The patients selected were healthy men between the ages of 21 and 65 years with a diagnosis of premature ejaculation (PE). Patients who met the selection criteria provided a medical history and submitted to psychosexual and physical examinations at screening. The efficacy of the paroxetine capsules was assessed at each visit. Safety was assessed by physical examinations and adverse experience (AE) reports, if any, were collected throughout the study. A post-treatment physical assessment was performed at the final visit. Qualified patients who were admitted to this study were assigned an identification number in sequential order by enrollment. […] There were a total of about eighteen patients per dose/per site. […] The capsule was to be taken one hour after breakfast or within two hours of awakening.
# [5] = Study Group 1-A, week 1: continual maintenance paroxetine 20 mg 3-4 hours before intercourse
# [6] = Study Group 1-A, week 2: continual maintenance paroxetine 20 mg 3-4 hours before intercourse
# [7] = Study Group 1-A, week 3: continual maintenance paroxetine 20 mg 3-4 hours before intercourse
# [8] = Study Group 1-A, week 4: continual maintenance paroxetine 20 mg 3-4 hours before intercourse
# [9] = Study Group 1-B, week 8: first week of continual maintenance paroxetine 20 mg after placebo and washout
# [10] = Study Group 1-B, week 9: second week of continual maintenance paroxetine 20 mg after placebo and washout
# [11] = Study Group 1-B, week 10: third week of continual maintenance paroxetine 20 mg after placebo and washout
# [12] = Study Group 1-B, week 11: fourth week of continual maintenance paroxetine 20 mg after placebo and washout
# [13] = Study Group 2, Daily Paroxetine (10 mg)
# [14] = Study Group 2, Daily Paroxetine (10 mg), 42 patients
# [15] = Study Group 2, Daily Paroxetine (10 mg), 42 patients, listed as Paroxetine
structure (smiles),measurement,setting,value
"Fc1ccc([C@@H]2CCNC[C@H]2COc2ccc3c(c2)OCO3)cc1 (relative stereo) [paroxetine, trans-(−)-3-(1,3-benzodioxol-5-yloxy)methyl-4-(4-fluorophenyl) piperidine]",Coitus Frequency/wk,[1]; [5],1.1 /wk
same,Ejaculatory Latency Time,[1]; [5],1.0 min
same,Coitus Frequency/wk,[1]; [6],1.4 /wk
same,Ejaculatory Latency Time,[1]; [6],3.0 min
same,Coitus Frequency/wk,[1]; [7],2.3 /wk
same,Ejaculatory Latency Time,[1]; [7],2.9 min
same,Coitus Frequency/wk,[1]; [8],3.2 /wk
same,Ejaculatory Latency Time,[1]; [8],3.2 min
same,Coitus Frequency/wk,[1]; [9],0.6 /wk
same,Ejaculatory Latency Time,[1]; [9],1.3 min
same,Coitus Frequency/wk,[1]; [10],1.9 /wk
same,Ejaculatory Latency Time,[1]; [10],2.8 min
same,Coitus Frequency/wk,[1]; [11],3.5 /wk
same,Ejaculatory Latency Time,[1]; [11],3.5 min
same,Coitus Frequency/wk,[1]; [12],3.1 /wk
same,Ejaculatory Latency Time,[1]; [12],3.5 min
same,time to prolongation of the ejaculatory interval (ELT),[1]; Study Group 1: continual maintenance paroxetine,1-2 weeks
same,patients achieving intra-vaginal ejaculation for the first time,"[1]; Study Group 1, patients who had never previously achieved it, after two weeks of treatment",one of three
same,patients reporting any adverse effects,"[2]; Study Group 1, continual maintenance use of paroxetine (20 mg)",None
same,Adverse effects: Total Patients (fraction),[2]; [13],7/42
same,Adverse effects: Total Patients (percent),[2]; [13],17%
same,Adverse effect: Anejaculation (patients),[2]; [14],Three
same,Adverse effect: Anorexia (patients),[2]; [14],1
same,Adverse effect: Gastrointestinal upset (patients),[2]; [14],3
same,Adverse effect: Reduced Libido (patients),[2]; [14],Two
same,Adverse effect: Anejaculation (patients),[2]; [15],3
same,Adverse effect: Reduced Libido (patients),[2]; [15],2
same,return of ejaculation after withdrawal of the drug,"[2]; Study Group 2, patients with anejaculation on daily paroxetine",2 to 10 days
same,"Mean Time in minutes, Reported By Partner","[3]; 20 mg capsule daily, n = 26",6.5 min
same,"Time in minutes (Range), Reported By Partner","[3]; 20 mg capsule daily, n = 26",(0.4-20) minutes
same,"Mean Time in minutes, Reported By Patient","[3]; 20 mg capsule daily, n = 28",6.2 min
same,"Time in minutes (Range), Reported By Patient","[3]; 20 mg capsule daily, n = 28",(0.5-20) minutes
same,"Mean % Change from Baseline, Reported By Partner",[3]; 20 mg capsule daily,225%
same,"Mean % Change from Baseline, Reported By Patient",[3]; 20 mg capsule daily,464%
same,"Mean Time in minutes, Reported By Partner","[3]; 30 mg capsule daily, n = 25",6.8 min
same,"Time in minutes (Range), Reported By Partner","[3]; 30 mg capsule daily, n = 25",(0.3-30) minutes
same,"Mean Time in minutes, Reported By Patient","[3]; 30 mg capsule daily, n = 27",7 min
same,"Time in minutes (Range), Reported By Patient","[3]; 30 mg capsule daily, n = 27",(0.25-45) minutes
same,"Mean % Change from Baseline, Reported By Partner",[3]; 30 mg capsule daily,240%
same,"Mean % Change from Baseline, Reported By Patient",[3]; 30 mg capsule daily,536%
same,"Reason for Early Termination: AE (Adverse Experience), patients","[3]; Clinical Site A, 10 enrolled",0
same,"Reason for Early Termination: AE (Adverse Experience), patients","[3]; Clinical Site B, 9 enrolled",0
same,"Reason for Early Termination: AE (Adverse Experience), patients","[3]; Clinical Site C, 15 enrolled",2
same,"Reason for Early Termination: AE (Adverse Experience), patients","[3]; Clinical Site D, 19 enrolled",3
same,"Reason for Early Termination: AE (Adverse Experience), patients","[3]; TOTALS of sites A-D, 53 enrolled",5
same,"Time to Ejaculate, Mean Time (minutes), Reported By Partner",[4]; 6 mg capsule daily,2.6 min
same,"Time to Ejaculate, Range (minutes), Reported By Partner",[4]; 6 mg capsule daily,0.4 to 15 min
same,"Time to Ejaculate, Mean Time (minutes), Reported By Patient","[4]; 6 mg capsule daily, n 25",2.4 min
same,"Time to Ejaculate, Range (minutes), Reported By Patient","[4]; 6 mg capsule daily, n 25",0.03 to 16 min
same,"Time to Ejaculate, Mean Time (minutes), Reported By Partner",[4]; 9 mg capsule daily,2.3 min
same,"Time to Ejaculate, Range (minutes), Reported By Partner",[4]; 9 mg capsule daily,0.03 to 10 min
same,"Time to Ejaculate, Mean Time (minutes), Reported By Patient","[4]; 9 mg capsule daily, n 25",2.4 min
same,"Time to Ejaculate, Range (minutes), Reported By Patient","[4]; 9 mg capsule daily, n 25",0.03 to 12.5 min
same,"Time to Ejaculate, Mean Time (minutes), Reported By Partner",[4]; 12 mg capsule daily,3.5 min
same,"Time to Ejaculate, Range (minutes), Reported By Partner",[4]; 12 mg capsule daily,0.12 to 30 min
same,"Time to Ejaculate, Mean Time (minutes), Reported By Patient","[4]; 12 mg capsule daily, n 24",2.4 min
same,"Time to Ejaculate, Range (minutes), Reported By Patient","[4]; 12 mg capsule daily, n 24",0.25 to 10 min
same,"Reason for Early Termination: AE (Adverse Experience), patients","[4]; Clinical Site A, 10 enrolled",0
same,"Reason for Early Termination: AE (Adverse Experience), patients","[4]; Clinical Site B, 16 enrolled",3
same,"Reason for Early Termination: AE (Adverse Experience), patients","[4]; Clinical Site C, 34 enrolled",1
same,"Reason for Early Termination: AE (Adverse Experience), patients","[4]; Clinical Site D, 6 enrolled",1
same,"Reason for Early Termination: AE (Adverse Experience), patients","[4]; Clinical Site E, 22 enrolled",1
same,"Reason for Early Termination: AE (Adverse Experience), patients","[4]; Clinical Site F, 19 enrolled",2
same,"Reason for Early Termination: AE (Adverse Experience), patients","[4]; TOTALS of sites A-F, 107 enrolled",8

# Source: patent US20020035131A1, “Regimen and kit for amelioration of premature ejaculation” (Pentech Pharmaceuticals, Inc., priority 1999, published 2002)
